Experimental data: article PMC6463794, “Inhibition of CDC25B With WG-391D Impedes the Tumorigenesis of Ovarian Cancer” (Frontiers in Oncology, 2019)

Target: T1, CDC25B (Homo sapiens, UniProt P30305)
T1 construct: recombinant CDC25B protein
T1 sequence (P30305 1-580): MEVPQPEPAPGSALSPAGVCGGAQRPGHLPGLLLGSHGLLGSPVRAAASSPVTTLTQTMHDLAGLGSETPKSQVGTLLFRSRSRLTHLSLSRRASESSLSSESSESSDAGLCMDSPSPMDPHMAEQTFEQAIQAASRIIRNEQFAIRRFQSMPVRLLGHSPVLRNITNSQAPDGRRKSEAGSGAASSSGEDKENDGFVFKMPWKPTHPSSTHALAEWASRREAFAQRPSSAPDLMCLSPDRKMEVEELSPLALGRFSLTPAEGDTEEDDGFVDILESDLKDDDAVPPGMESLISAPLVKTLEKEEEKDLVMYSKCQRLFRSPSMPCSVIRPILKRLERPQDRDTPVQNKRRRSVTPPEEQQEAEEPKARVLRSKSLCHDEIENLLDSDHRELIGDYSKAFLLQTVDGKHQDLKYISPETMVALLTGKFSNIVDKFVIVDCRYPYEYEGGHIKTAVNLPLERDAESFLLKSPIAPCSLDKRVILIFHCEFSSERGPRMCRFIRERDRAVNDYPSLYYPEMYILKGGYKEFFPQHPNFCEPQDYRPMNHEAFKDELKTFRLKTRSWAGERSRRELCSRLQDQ
Experiment: fluorometric phosphatase assay (3-O-methylfluorescein phosphate) with recombinant CDC25B; positive-control inhibitor, single concentration
Type: biochemical
Protocol: fluorometric phosphatase assay (3-O-methylfluorescein phosphate) with recombinant CDC25B; positive-control inhibitor, single concentration on CDC25B | CDC25B dephosphorylation catalytic activity was determined by in vitro enzyme assay. ... PC, NSC663284 served as the positive control.

O=C1C(Cl)=C(NCCN2CCOCC2)C(=O)c2ncccc21 [PC, NSC663284]
fluorometric phosphatase assay (3-O-methylfluorescein phosphate) with recombinan: CDC25B dephosphorylation catalytic activity was determined by in vitro enzyme assay. ... PC, NSC663284 served as the positive control.
